Earlier results, collected in patent publication US20160253451A1, “METHOD OF USING A WATER-BASED PHARMACOPHORE” (KOREA UNIVERSITY, priority 2013, published 2016).

Biological target: streptavidin (Streptomyces avidinii, UniProt P22629)
Conditions: streptavidin-biotin complex

Sequence of streptavidin (P22629 25-183, species assumed): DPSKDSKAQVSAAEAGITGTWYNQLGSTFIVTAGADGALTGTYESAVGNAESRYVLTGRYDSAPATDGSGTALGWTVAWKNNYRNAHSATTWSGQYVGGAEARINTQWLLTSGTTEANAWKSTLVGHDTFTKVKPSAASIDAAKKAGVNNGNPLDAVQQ

In the case of `O=C(O)CCCC[C@@H]1SC[C@@H]2NC(=O)N[C@@H]21` [biotin], the actual affinity is given as -18.3 kcal/mol.
